# Assay results reported in US20120196918A1, “PREVENTING ISLET INFLAMMATION AND DYSFUNCTION AND MAINTAINING PROPER GLUCOSE LEVELS BY CONTROLLING eIF5A AND ITS HYPUSINATION” (priority 2009, published 2012).
# What was measured:
# [1] = system: STZ-treated C57BL/6J mice; assay: Multiple low-dose streptozotocin (STZ) diabetes model in C57BL/6J mice; format: in vivo, mouse
# Method: (§1) To test the role of eIF5A in cytokine-mediated islet dysfunction, efforts were made to identify a mouse model of islet inflammation. The multiple low dose streptozotocin (STZ) model, in which mice are subjected to five daily intraperitoneal doses (at 55 mg/kg body weight) of STZ, is considered to provoke local islet inflammation and cytokine release, in part through the recruitment of CD11c+ dendritic cells that release pro-inflammatory cytokines in the area of STZ-induced cellular destruction (27 and 28).
# C57BL/6J mice were injected intraperitoneally with either stabilized siRNA against eIF5A (si-eIF5A) or control siRNA (si-Control) daily for three days, then subjected to the multiple low-dose STZ protocol (see schematic in FIG. 1a). […] The effect of administering si-eIF5A on islet viability following STZ treatment was determined by performing immunohistochemical analysis of the pancreata of mice. […] To quantify the differences in islet mass between STZ-treated and untreated animals, morphometry of insulin-stained pancreatic sections was performed.
# Based on the observed data, if hypusination of eIF5A by DHS is required for cytokine responsiveness in islets, then inhibition of DHS in vivo should protect against low dose STZ diabetes. To test this, C57BL/6J mice were treated with GC7 or vehicle and then subjected to low dose STZ injections. GC7 was delivered in one of two different ways: either by daily bolus intraperitoneal injections (4 mg/kg/day) or by continuous subcutaneous delivery (40 μg/kg/h) using implanted osmotic pumps. A protocol similar to that shown in FIG. 1A was employed in these studies, with GC7 injections or pump implants starting 3 days prior to STZ injections.
# Small interfering RNA (siRNA) studies: Stabilized siRNAs for intraperitoneal injections were custom synthesized by Dharmacon using the siSTABLE® modification. Groups of 10 week-old C57BL/6J male mice (from Jackson Labs) received daily intraperitoneal injections of 1.6 mg/kg siRNA prepared in 0.9% saline or vehicle alone (0.9% saline) for 3 days. For in vitro studies, islets from each group of injected mice were harvested on the fourth day and pooled prior to analysis. Injections with each siRNA were performed on at least 3 different occasions. siRNA sequences were as follows: siControl, 5′-[…]-3′; si-eIF5A, 5′-[…]-3′. For siRNA studies in the rat β cell-derived line INS-1 (832/13), cells were transfected with a SMART Pool® siRNA against rat eIF5A1 (Dharmacon, #L-083855-01) or non-targeting control siRNA #1 (Dharmacon) using DharmaFECT® transfection reagent (Dharmacon).
# Immunostaining and morphometric assessment of β cell mass: Immunostaining of pancreatic sections proceeded as described previously (72). For assessment of islet cell death in pancreatic sections, the technique of terminal deoxynucleotidyl transferase dUTP nick end labeling (TUNEL) was performed using biotinylated 16-dUTP (Roche) and Texas Red Neutravidin (Invitrogen). Digital images of each islet at 40× magnification were acquired using an Axio-Observer D1 microscope (Zeiss) inverted fluorescent microscope equipped with a high-resolution color camera. TUNEL-positive/insulin-positive nuclei were counted manually by an observer blinded to sample identity, and data were re-coded as the average number of TUNEL-positive nuclei per islet. β cell mass was calculated as described previously (73), but with some modifications. Briefly, pancreata from 3 mice per treatment group were rapidly dissected and weighed, fixed in 4% paraformaldehyde, paraffin-embedded, and longitudinally sectioned. Three sections/pancreas (approx. 75 μm apart) were subsequently immunostained for insulin and counterstained with hematoxylin as described (74), and digital images of each section at 10× magnification were acquired on an Axio-Observer Z1 microscope (Zeiss) fitted with an AxioCam high resolution color camera. […]
# [2] = system: STZ-treated NOD/Scid-(IL-2Rγ-null) mice; assay: Multiple low-dose STZ model in immune-deficient NOD/Scid-(IL-2Rγ-null) mice; format: in vivo, mouse; details: multiple low-dose STZ (data not shown for si-eIF5A)
# Method: as §1
# As noted, low-dose STZ-induced islet dysfunction involves at least two mechanisms: an inflammatory mechanism that is dependent upon cytokine release from immune cells and a direct toxic mechanism on the islet itself. […] Next, islets from 3 C57BL/6J mice per group 24 h after the initial STZ treatment were isolated and pooled and their iNOS content determined by immunoblot. […]
# Studies in vivo: Daily STZ injections to groups of 10 week-old C57BL/6J and NOD/Scid-(IL-2Rγ-null) mice proceeded as described previously (30) at a dose of 55 mg STZ per kg mouse weight for 5 days. […] Serum was analyzed using a Luminex system (Millipore) and a mouse cytokine/chemokines Panel 1 mutliplex kit (Millipore).
# iNOS [3] = assay: Cytokine-induced iNOS protein in INS-1 cells (immunoblot); format: cell-based, rat; details: increasing inhibitor concentrations overnight, cytokines 4 h
# Source text: eIF5A1 and eIF5A2 are the only proteins known to contain the unique amino acid hypusine at position 50. Hypusine is formed as a posttranslational modification of residue Lys50 in a reaction requiring spermidine and catalyzed by the sequential actions of the enzymes deoxyhypusine synthase (DHS) and deoxyhypusine hydroxylase (DOHH) (Chen, K Y, and Liu, A Y. Biochemistry and function of hypusine formation on eukaryotic initiation factor 5A. Biol Signals. 1997; 6(3):105-109). […] To further investigate the mechanism of eIF5A-regulated translation of Nos2, studies were performed following overnight incubation of cells with mimosine (an inhibitor of DOHH) and GC7 (an inhibitor of DHS). […] Similar data using GC7 were obtained in primary mouse islets (data not shown) and in human islets (FIGS. 5F and 5G).
# Because GC7 is known to be inactivated by the action amine oxidases, which are abundant in serum, typical studies with GC7 in the literature have used aminoguanidine to inhibit amine oxidases (16). […] To rule out possible adverse effects of GC7 on cell viability, quantitative 2 color fluorescence analysis of live (calcein-AM-positive) and dead (ethidium homodimer-1-positive) cells were performed using fluorescence cytometry.
# Cytokine and inhibitor incubation studies: For cytokine incubation assays, a 1000× cocktail of cytokines containing 5 μg/ml IL1β, 10 μg/ml TNFα, and 100 μg/ml IFNγ (all prepared in 0.1% BSA in Tris-buffered saline) was applied at 1× final concentration to groups of 50 islets or 1×10^6 INS-1 (832/13) cells for a total of 4 h at 37° C. For GC7 incubation studies, GC7 was prepared at a stock concentration of 125 mM in 10 mM acetic acid and applied to cultures of 50 islets or 1×10^6 INS-1 cells to obtain the final concentrations indicted in the figures. Where needed, GC7 was protected from amine oxidases in serum by addition of 1 mM aminoguanidine (Sigma). Cells were incubated with GC7 overnight (˜16 h) at 37° C. prior to analysis. Cells were exposed to Leptomycin B (Cayman Chemicals) for 3 hours; leptomycin B was prepared at a 1000× stock concentration of 20 μg/ml in ethanol.
# Immunoblot and nitrite and iNOS assays: Whole cell extracts were resolved by electrophoresis on a 4-20% SDS-polyacrylamide gel, followed by immunoblot using anti-eIF5A1, anti-eIF5A2, anti-iNOS, anti-GFP, or anti-actin primary antibodies and fluorophore-labeled secondary antibodies. Immunoblots were visualized using the Li-Cor® Odyssey® system (Li-Cor Biosciences) and quantitated by scanning fluorometry using Odyssey Imaging v. […] Nitrite was quantitated by measuring nitric oxide-derived nitrite from INS-1 cell culture medium using the Griess reagent (Promega) according to the manufacturer's recommendations. iNOS activity was measured using a commercially available kit (Cayman).
# Nos2 mRNA = assay: Nuclear export of Nos2 mRNA, subcellular fractionation of cytokine-treated INS-1 cells; format: cell-based, rat
# Method: Subcellular fractionation studies: Nuclear and cytoplasmic fractions of 1×10^6 cytokine-treated INS-1 cells exposed to vehicle, leptomycin B (20 ng/ml), or GC7 (100 μM) were prepared using the method of Dignam, et al. (76). Total RNA was isolated from nuclear and cytoplasmic fractions using the RNeasy® RNA isolation kit (Qiagen).
# Quantitative RT-PCR: Five micrograms of total RNA from islets or INS-1 cells were reverse-transcribed as detailed previously (77). cDNA was subjected to quantitative PCR using SYBR Green-based technology and published primers for mouse Ins1/2 pre-mRNA (78) and QuantiTech® primers (Qiagen) for all other mouse genes. The Assay on Demand® kit (Applied Biosystems) was used to amplify rat genes in INS-1 cells and human genes in human islets. Thermal cycling was performed according to manufacturer's instructions, and the identity of each PCR product was verified by automated sequencing. All samples were corrected for total input RNA as quantitated by an Experion® (Bio-Rad) bioanalyzer. All data represent the average of triplicate determinations from at least 3 independent experiments.
# eIF5A = eIF5A nuclear-to-cytoplasmic translocation in INS-1 cells (immunofluorescence); format: cell-based, rat; details: pretreatment, then cytokines 4 h
# Method: Given the striking retention of Nos2 transcripts in the absence of eIF5A-Hyp, it was of interest to determine whether the intracellular distribution of eIF5A accounts for its effect on Nos2 nucleo-cytoplasmic shuttling. Immunofluorescence of eIF5A in fixed INS-1 cells, were thus performed. […] Upon treatment of cells with cytokines, there was a shift in the eIF5A distribution pattern from the nucleus to the cytoplasm.
# Cytokine and inhibitor incubation studies: For cytokine incubation assays, a 1000× cocktail of cytokines containing 5 μg/ml IL1β, 10 μg/ml TNFα, and 100 μg/ml IFNγ (all prepared in 0.1% BSA in Tris-buffered saline) was applied at 1× final concentration to groups of 50 islets or 1×10^6 INS-1 (832/13) cells for a total of 4 h at 37° C. For GC7 incubation studies, GC7 was prepared at a stock concentration of 125 mM in 10 mM acetic acid and applied to cultures of 50 islets or 1×10^6 INS-1 cells to obtain the final concentrations indicted in the figures. […]
# Immunofluorescence: Immunofluorescence of INS-1 cells proceeded essentially as described previously (71), using primary antibodies to eIF5A1 and secondary anti-mouse Alexa-488-conjugated antibody (Invitrogen), or by direct visualization of GFP fusion proteins at 488 nm. […] Quantitation of cytoplasic-to-nuclear ratios of eIF5A staining was performed using Axio-Vision Software, v. […]
# iNOS [4] = details: cited from earlier work
compound,measurement,setting,value
"IL-1Ra: interleukin-1 receptor antagonist, the IL-1Ra anakinra",glucose intolerance in IPGTT with IL-1Ra,"[1]; concurrent IL-1Ra treatment, multiple low-dose STZ",attenuated glucose intolerance only in immune-competent mice
same,serum IL-6 levels,[1]; concurrent treatment with STZ,dramatic drop in serum IL-6 levels
same,protection against glucose intolerance,[2],did not protect against glucose intolerance
NC(Cn1ccc(=O)c(O)c1)C(=O)O (stereo not shown) [mimosine],iNOS protein after cytokines,iNOS [3],dose-dependent attenuation
CCC(=C/[C@H](C)C/C=C/C(C)=C/[C@@H](C)C(=O)[C@@H](C)[C@H](O)[C@@H](C)C/C(C)=C/C(=O)O)/C=C/[C@@H]1OC(=O)C=C[C@@H]1C [leptomycin B],Nos2 export blocked,Nos2 mRNA; cytokine-treated INS-1 cells,about 50%
same,distribution of mRNAs between nuclear and cytoplasmic fractions,"Nos2 mRNA; cytokine-treated, GC7 100 μM overnight or leptomycin B 20 ng/ml 3 h","relative retention of Nos2, Actb, and Nfkb1 (but not Gapdh) in the nuclear fraction"
same,cytokine-induced translocation of eIF5A,eIF5A,failed to induce the nuclear to cytoplasmic translocation of eIF5A
"5′-AAAGUCGACCUUCAGUAAGGA-3′ (stabilizing modifications, further chemistry not given here) [si-Control, control siRNA, stabilized]",average fasting blood glucose,"[1]; siRNA 1.6 mg/kg i.p. daily for 3 days, then multiple low-dose STZ, day 7",159 mg/dL
same,reduction of β cell mass compared to non-STZ-treated controls,"[1]; siRNA i.p., multiple low-dose STZ, morphometry of insulin-stained sections",2.8 fold
N=C(N)NN [aminoguanidine],inhibition of iNOS catalytic activity (literature),iNOS [4],effective inhibitor of iNOS catalytic activity
